Columns and labels:
[1] = Apparent permeability from apical to basolateral side in human Caco2 cells at 2 uM after 2 hrs by LC-MS/MS analysis; format: ADME, cell-based; conditions: caco-2, 2 h
[2] = Apparent permeability from basolateral to apical side in human Caco2 cells at 2 uM after 2 hrs by LC-MS/MS analysis; format: ADME, cell-based; conditions: caco-2, 2 h

Q: For OC12CC3CC(C1)CC(NCc1cc(C4CC4)on1)(C3)C2, which Papp [1] is on record?
A: 27.57 ×10⁻⁶ cm/s

Q: And the Papp [2]?
A: 28.33 ×10⁻⁶ cm/s

Source: ChEMBL document CHEMBL4024798
